Laboratory results as given in US8410045B2, “Camptothecin-peptide conjugates and pharmaceutical compositions containing the same” (Drais Pharmaceuticals, Inc., priority 2006, dated 2013).
“Also recorded” adds a separate entry of the source. Structures can show the parent of a compound that is named as a salt. Marks after values point to notes of the source that are not given here.

Tests used:
[1] = Toxicity study in the beagle dog following intravenous infusion; settings: dog, 30 mg/kg
Protocol: Adult female and male beagle dogs were individually housed with free access to tap water. A pellet diet was distributed daily.
Dogs (1 dog for each drug and dose) were infused intravenously through the cephalic or saphenous vein. These intravenous infusions were made using a single-use catheter (Intraflon®) and a plastic syringe connected to a syringe pump. During the injection, the animals were restrained in a hammock.
Conjugates were dissolved in water for injection (10% of final volume) and diluted with 0.9% NaCl to their final concentration. The volume administered to each animal was adjusted according to body weight.
Clinical signs, hematological and intestinal toxicities were monitored during a period of 15 days after infusion. Each animal was checked at least twice a day for mortality or signs of morbidity.
The body weight of each animal was recorded on the day −1, 4, 10 and 13.
Peripheral blood samples were taken into EDTA tubes for the determination of following parameters on days −1, 5, 11 and 14: erythrocytes, hemoglobin, mean cell volume, packed cell volume, mean cell hemoglobin concentration, mean cell hemoglobin, thrombocytes, leucocytes, differential white cell count with cell morphology.

[2] = tested on: HCT 116 human colorectal carcinoma tumor
[3] = dog; F. Lavelle et al., Seminar in Oncology (1996); cited from earlier work
physchem = settings: water
[4] = M. Horikawa, Pharmaceutical Res. 2002; cited from earlier work
[5] = In vitro cytotoxicity (WST-1 cell viability); assay type: cell-based, human; settings: 1 h exposure + 48 h post-incubation; read-out: In vitro cytotoxicity IC50 (μM) NCI-H460
Protocol: Cytotoxic evaluation was performed by seeded cells for 24 h prior to the addition of the therapeutic compound. Cells were incubated for 48 h (37° C.) with different dilutions of the therapeutic compound. Cell viability was then assessed using the WST-1 assay (Roche). The results are expressed as mean cytotoxic concentrations (IC50 value or molar concentration that inhibits 50% of cell viability) that were estimated from sigmoid regression, using Graph Pad Prism 3.02 software.
NCI-H460 (ATCC#: HTB-177): human epithelial lung carcinoma cells. Cells were cultured in RPMI 1640+glutamax and 10% of fetal bovine serum. Cells were plated at a density of 10,000 cells/well in 96-well plates.

NCI-H460 lung carcinoma = experiment: Antitumor efficacy in NCI-H460 lung carcinoma model in nude mice; settings: Table 9, 25 μmol/kg

| SMILES | body weight loss ([1]; 20 min infusion) | white blood cells depletion ([1]; Day 5) | Reduction in WBC at D5 (%) ([1]; i.v. infusion) | Toxic signs Day 1 ([1]; i.v. infusion) | Toxic signs Following Days ([1]; i.v. infusion) | TGI (100-T/C %) ([2]; Table 5, Q1D5, 18 (cumulative 90) μmol/kg) | Minimal T/C (%) ([2]; iv) | Maximal Tolerated Dose (MTD) [3] | solubility (physchem) | excreted into bile [4] | IC50 [5] | In vivo efficacy Optimal T/C % (NCI-H460 lung carcinoma) | In vivo efficacy TGI % (NCI-H460 lung carcinoma) | In vivo efficacy Optimal T/C % (NCI-H460 lung carcinoma; listed as DPV1047-BCH-SN38.HCl) |
| --- | --- | --- | --- | --- | --- | --- | --- | --- | --- | --- | --- | --- | --- | --- |
| CCc1c2c(nc3ccc(OC(=O)N4CCC(N5CCCCC5)CC4)cc13)-c1cc3c(c(=O)n1C2)COC(=O)[C@]3(O)CC [irinotecan, reference compound] | −8.5% | 92% | −92% | Ptyalism; also recorded: Liquid feces; also recorded: Vomit; also recorded: Loss of balance; also recorded: Tremors (marked) | Vomit: D4 | 90*** % | 10% | 30 mg/kg | ≤ 2500 µg/mL | > 26% | – | – | – | – |
| CCc1c2c(nc3ccc(OC(=O)[C@H]4CC[C@H](CNC(=O)C5CCC(CN6C(=O)CC(SC[C@H](N)C(=O)N[C@H](C(=O)N[C@@H](CCCCN)C(=O)N[C@@H](CCCNC(=N)N)C(=O)NCC(=O)N[C@@H](CC(C)C)C(=O)N[C@@H](CCCCN)C(=O)N[C@@H](CC(C)C)C(=O)N[C@@H](CCCNC(=N)N)C(=O)N[C@@H](Cc7c[nH]cn7)C(=O)N[C@H](C(=O)N[C@@H](CCCNC(=N)N)C(=O)N7CCC[C@H]7C(=O)N[C@@H](CCCNC(=N)N)C(=O)N[C@H](C(=O)N[C@H](C(=O)N[C@@H](CCCNC(=N)N)C(=O)N[C@@H](CCSC)C(=O)N[C@@H](CC(=O)O)C(=O)N[C@H](C(=O)O)C(C)C)[C@@H](C)O)C(C)C)C(C)C)C(C)C)C6=O)CC5)CC4)cc13)-c1cc3c(c(=O)n1C2)COC(=O)[C@]3(O)CC (single isomer, unassigned) [DPV1047-BCH-SN38•HCl] | – | – | – | – | – | – | – | – | – | – | 173 µM | 22.9% | 77.1% | 18.4% |
